From patent publication US20180216113A1, “METHODS FOR REDUCING PROTEOTOXICITY” (priority 2015, published 2018)

Columns and labels:
C. elegans [1] = assay: Triglyceride quantification in worms; format: in vivo; conditions: perhexiline treated worms
Description: (§1) To quantify triglyceride content, a Triglyceride quantification kit (Bio Vision) was used according to the manufacturer's protocol. Briefly, worms were harvested from plates and washed with M9 three times. Worms were homogenized with 5% NP-40 in water using a glass dounce homogenizer to extract mostly the intestinal tissues by checking the lysates under a dissecting microscope. Worms looked like empty shells once the intestinal tissues were extracted out. The samples were heated slowly at 90° C. for 5 minutes and cooled down to room temperature. Heating was repeated once more prior to centrifugation of the samples for 2 minutes to bring down debris. Supernatant was removed and mixed with enzymes provided in the kit according to the manufacturer's manual. Measurement was done using microplate reader M1000 (TECAN) at Ex/Em=535/590 nm. Calculations were done after subtracting 0 standard readings as a background.
Sample Triglyceride control (C)=B/V×D nmol/μl or mM
(§2) Perhexiline (Sigma) powder was dissolved in dimethylsulfoxide (DMSO) (100 mM). The stock was diluted to 1 mM and 100 μl was spotted on the E. coli OP50 plates or HT115 RNAi plates and dried before transferring the worms. Worms were transferred to new perhexiline plates every other day for three to four days until harvested for following experiment. […]

[2] = tested on: human primary fibroblasts; assay: Triglyceride content of human primary fibroblasts; format: cell-based; conditions: human primary fibroblasts (GFP expressing cells) after perhexiline treatment
Description: as §1
For the mammalian cell culture samples, cells were washed with cold PBS and homogenized with 5% NP-40 in water using a syringe with 22 G needle, followed by the procedure shown above. All experiments were done with three biological repeats.
For the cell culture experiments, cells were grown to 90% confluent and washed with PBS. Indicated concentrations of perhexiline were diluted in the cell growth media with serum and replaced in cell culture dishes. […]

cytosolic HSP70 = assay: Western blotting of cytosolic HSP70 in human primary fibroblasts; format: cell-based; conditions: human primary fibroblasts (GFP expressing cells)
Description: The following siRNAs were tested for depleting the indicated genes in the human primary fibroblasts or HEK cells: hspa9 siRNA (#1 and #2), accl siRNA (#1 and #2), fas siRNA (#1 and #2) (Ambion). Scrambled siRNA with no known mammalian homology (non-targeting siRNA #1 (Ambion) was used as negative control. Double siRNA treatment was performed by mixing two different siRNAs indicated at 1:1 ratio. Cells were transfected with the siRNAs using JetPrime according to the manufacturer's manual and then harvested after 48 h. Control vector-transfected cells were used as controls for all the experiments. For SDS-PAGE, 20-40μg of protein samples were loaded on 4-12% bis-tris SDS gel (Invitrogen). The gel was transferred to nitrocellulose membrane (GE) using XCell II blot module (Invitrogen). Then, membranes were incubated with antibodies and exposed to film as described above. mtHSP70 (Abcam), α-Tubulin (Sigma), GFP (Roche), and cytosolic HSP70 (HSP70/HSP72, Enzo life) were used to probe the membrane. The western blot bands' intensity was measured using ImageJ software. For the cell culture experiments, cells were grown to 90% confluent and washed with PBS. Indicated concentrations of perhexiline were diluted in the cell growth media with serum and replaced in cell culture dishes. After 48 hours, cells were washed with PBS and harvested for following experiments.

hsp-6p::GFP = hsp-6p::GFP / hsp-60p::GFP reporter induction (UPRmt); format: in vivo, C. elegans; conditions: for UPRmt caused by cco-1 knockdown: ceramide fed reporter worms
Description: (§3) Bacterial feeding of RNAi experiments was conducted during adulthood to exclude target genes' function during developmental stages. Synchronized eggs were harvested by bleaching and nematodes were grown on plates with E. coli OP50 until they reached early adulthood before they were transferred to RNAi plates. Day 1 adult worms were then grown on the RNAi plates with E. coli HT115 that carried the RNAi construct for 3 days at 20° C. Worms were imaged using a fluorescent microscope for green fluorescent protein (GFP) induction or applied to COPAS Biosorter (Union Biometrica) to quantify the level of GFP induction. The temperature-sensitive sterile strains were grown at 15° C. until they were gravid adults. Then, the cohorts were shifted to 25° C. Day 1 adult worms were transferred to RNAi plates for 2 days before images were taken. For the double RNAi treatment, E. coli carrying the indicated RNAi constructs are mixed 1:1 ratio.
(§4) Lipids, Inc. Lyophilized lipids were dissolved in Methanol with sonication. Ceramides were diluted to 100μg/ml and spotted on top of the OP50 plates or RNAi plates. Worms were transferred to Ceramide-spotted plates at L4 stage and the images were taken after 48 hours. Cardiolipin was fed to bacteria for 2-4 hours (OP50 or RNAi construct-carrying HT115) with final concentration of 100μg/ml. Then the bacteria were spotted on plates before transferring the worms. L4 worms were then transferred to the cardiolipin spotted plates and images were taken after 48 hours.
(§5) Perhexiline (Sigma) powder was dissolved in dimethylsulfoxide (DMSO) (100 mM). The stock was diluted to 1 mM and 100 μl was spotted on the E. coli OP50 plates or HT115 RNAi plates and dried before transferring the worms. Worms were transferred to new perhexiline plates every other day for three to four days until harvested for following experiment. For the perhexiline treatment with multiple numbers of RNAi (e.g., FIG. 4C), worms were transferred to the S-media containing HT115 RNAi bacteria, 100 μM of perhexiline and 1 mM of IPTG in a 96-well plate for 48 hrs.

[3] = tested on: aggregated PolyQ proteins (Q35::YFP); assay: Filter trap assay of aggregated PolyQ proteins in worms; format: in vivo, C. elegans; conditions: AM140 worms
Description: (§6) 100μg of protein samples were applied on to cellulose acetate membrane with 0.22 μm pore size (Schlechtes+Schule), assembled in vacuum slot blotter (Bio-Dot, Bio-Rad). Membrane was washed with 0.2% SDS five times on the blotter and subjected to antibody incubation for detecting aggregated protein retained on the membrane. Briefly, membrane was incubated with anti-GFP antibody (1:3000 dilution in 5% milk in PBS, Roche) overnight in a cold room. Membrane was washed with PBST (PBST with 0.05% Tween-20) for three times, then incubated with secondary antibody (donkey anti-mouse antibody conjugated with HRP, 1:5000 dilution in 5% milk in PBS, Jackson Immuno Research). Membranes were washed with PBST three times and exposed to film after applying ECL solutions (Pierce) to visualize the protein bands.
as §5

C. elegans [4] = assay: Oxygen consumption rate of whole worms (Seahorse); format: in vivo; conditions: perhexiline treatment of hsp-6 RNAi animals
Description: Oxygen consumption of whole worms was measured using the Seahorse XF96 (Seahorse Bioscience). Worms were washed off from plates with M9 to remove residual bacteria. Then, 50 worms (10 worms/well/100 μl) were transferred to the microplate. 50 μl of M9 was added to the wells and the oxygen consumption rate was measured. All experiments were repeated at least three times.

hsp-16.2p::GFP = hsp-16.2p::GFP reporter induction (cytosolic HSR / MCSR); format: in vivo, C. elegans; conditions: for hsp-6 RNAi-induced MCSR (hsp-16.2p::GFP): ceramide fed worms, 100μg/ml, 48 hours, on hsp-6 RNAi
Description: as §3, §4
Worms were grown up to day 1 adults and underwent heat shock at 34° C. for 2 hours, then recovered at 20° C. for overnight before taking images. For the Nile Red Staining experiment, worms were recovered for 48 hours.
as §2

[5] = tested on: polyglutamine repeats in Huntingtin exon 1 (Q78); assay: Filter trap assay of polyQ aggregates in human primary fibroblasts; format: cell-based; conditions: perhexiline 400 nM, 48 hours
Description: The following siRNAs were tested for depleting the indicated genes in the human primary fibroblasts or HEK cells: hspa9 siRNA (#1 and #2), accl siRNA (#1 and #2), fas siRNA (#1 and #2) (Ambion). Scrambled siRNA with no known mammalian homology (non-targeting siRNA #1 (Ambion) was used as negative control. Double siRNA treatment was performed by mixing two different siRNAs indicated at 1:1 ratio. Cells were transfected with the siRNAs using JetPrime according to the manufacturer's manual and then harvested after 48 h. Control vector-transfected cells were used as controls for all the experiments.
as §6, with “Membranes were washed with PBST three times and exposed to film after applying ECL solutions (Pierce) to visualize the protein bands.” left out

Row | SMILES | fat accumulation (triglyceride content) (C. elegans [1]) | triglyceride levels [2] | expression of cytosolic HSP70 (cytosolic HSP70) | induction of UPRmt (hsp-6p::GFP, hsp-60p::GFP) (hsp-6p::GFP; perhexiline treated reporter worms) | levels of aggregated PolyQ proteins [3] | overall oxygen consumption rate (C. elegans [4]) | cytosolic hsp-16.2 expression (hsp-16.2p::GFP; perhexiline treated hsp-16.2p::GFP;CF512 reporter worms) | polyglutamine protein aggregation [5] | UPRmt caused by cco-1 knockdown (hsp-6p::GFP) | hsp-6 RNAi-induced MCSR (hsp-16.2p::GFP) (hsp-16.2p::GFP)
1 | C1CCC(C(CC2CCCCN2)C2CCCCC2)CC1 (stereo not drawn) [perhexiline, 2-(2,2-dicyclohexylethyl)piperidine] | increased | increased | induce expression | moderately induced | decreased levels | did not further reduce | specifically induced | reduced | – | –
2 | CCCCCCCCCCCCC/C=C/[C@@H](O)[C@H](CO)NC(=O)CCCCCCCCCCCCCCCCCCC [C20 ceramide] | – | – | – | – | – | – | – | – | did not affect | partially block
3 | CCCCCCCCCCCCC/C=C/[C@@H](O)[C@H](CO)NC(=O)CCCCCCCCCCCCCCCCCCCCC [C22 ceramide] | – | – | – | – | – | – | – | – | did not affect | completely inhibited
